Read-outs that look alike come from different tables or passages of the source.
Columns and labels:
Test in all cases: HotSpot kinase profiling
Type in all cases: biochemical
EPHA5 = target: T1, EPHA5 (Homo sapiens, UniProt P54756)
T1 construct: purchased Reaction Biology Corp
Summary of the method: (§1)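 Radio-isotope P81 filtration format. Substrate + required cofactors in reaction buffer, kinase added, 2 h RT. Stop, wash with 0.1% phosphoric acid, detect. % inhibition vs DMSO; mean of duplicates where repeated.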

FGFR1 = target: T2, FGFR1 (Homo sapiens, UniProt P11362)
T2 construct: purchased Reaction Biology Corp
Summary of the method: as §1

SRPK1 = target: T3, SRPK1 (Homo sapiens, UniProt Q96SB4)
T3 construct: purchased Reaction Biology Corp
Summary of the method: as §1

PASK = target: T4, PASK (Homo sapiens, UniProt Q96RG2)
T4 construct: purchased Reaction Biology Corp
Summary of the method: as §1

PKCmu/PRKD1 = target: T5, PKCmu/PRKD1 (Homo sapiens, UniProt Q15139)
T5 construct: purchased Reaction Biology Corp
T5 sequence (Q15139 1-912): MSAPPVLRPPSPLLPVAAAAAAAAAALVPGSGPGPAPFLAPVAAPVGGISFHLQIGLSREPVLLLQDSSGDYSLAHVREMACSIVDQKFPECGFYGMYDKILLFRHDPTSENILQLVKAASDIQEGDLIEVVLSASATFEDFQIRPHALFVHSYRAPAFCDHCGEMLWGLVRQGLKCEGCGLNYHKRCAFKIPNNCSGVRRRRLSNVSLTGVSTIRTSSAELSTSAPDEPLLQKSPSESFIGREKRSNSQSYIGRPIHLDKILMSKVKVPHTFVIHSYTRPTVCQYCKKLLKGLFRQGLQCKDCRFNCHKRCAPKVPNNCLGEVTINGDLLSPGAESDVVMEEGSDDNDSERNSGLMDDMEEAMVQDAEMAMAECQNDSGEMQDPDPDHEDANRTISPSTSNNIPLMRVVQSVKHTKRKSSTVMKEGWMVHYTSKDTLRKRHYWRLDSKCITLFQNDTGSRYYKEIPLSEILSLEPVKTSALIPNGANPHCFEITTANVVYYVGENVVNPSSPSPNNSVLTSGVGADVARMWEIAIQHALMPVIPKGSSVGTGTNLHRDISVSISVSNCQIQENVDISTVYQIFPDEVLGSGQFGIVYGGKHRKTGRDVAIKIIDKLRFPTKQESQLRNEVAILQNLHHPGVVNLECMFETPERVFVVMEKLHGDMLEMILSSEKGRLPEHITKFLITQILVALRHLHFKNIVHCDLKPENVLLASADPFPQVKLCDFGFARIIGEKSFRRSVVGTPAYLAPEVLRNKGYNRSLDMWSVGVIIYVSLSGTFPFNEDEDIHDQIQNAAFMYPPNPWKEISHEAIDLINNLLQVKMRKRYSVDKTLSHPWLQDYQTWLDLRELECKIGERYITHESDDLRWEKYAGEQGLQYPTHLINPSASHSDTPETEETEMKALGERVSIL
Summary of the method: as §1

EPHA8 = target: T6, EPHA8 (Homo sapiens, UniProt P29322)
T6 construct: purchased Reaction Biology Corp
T6 sequence (P29322 28-1005): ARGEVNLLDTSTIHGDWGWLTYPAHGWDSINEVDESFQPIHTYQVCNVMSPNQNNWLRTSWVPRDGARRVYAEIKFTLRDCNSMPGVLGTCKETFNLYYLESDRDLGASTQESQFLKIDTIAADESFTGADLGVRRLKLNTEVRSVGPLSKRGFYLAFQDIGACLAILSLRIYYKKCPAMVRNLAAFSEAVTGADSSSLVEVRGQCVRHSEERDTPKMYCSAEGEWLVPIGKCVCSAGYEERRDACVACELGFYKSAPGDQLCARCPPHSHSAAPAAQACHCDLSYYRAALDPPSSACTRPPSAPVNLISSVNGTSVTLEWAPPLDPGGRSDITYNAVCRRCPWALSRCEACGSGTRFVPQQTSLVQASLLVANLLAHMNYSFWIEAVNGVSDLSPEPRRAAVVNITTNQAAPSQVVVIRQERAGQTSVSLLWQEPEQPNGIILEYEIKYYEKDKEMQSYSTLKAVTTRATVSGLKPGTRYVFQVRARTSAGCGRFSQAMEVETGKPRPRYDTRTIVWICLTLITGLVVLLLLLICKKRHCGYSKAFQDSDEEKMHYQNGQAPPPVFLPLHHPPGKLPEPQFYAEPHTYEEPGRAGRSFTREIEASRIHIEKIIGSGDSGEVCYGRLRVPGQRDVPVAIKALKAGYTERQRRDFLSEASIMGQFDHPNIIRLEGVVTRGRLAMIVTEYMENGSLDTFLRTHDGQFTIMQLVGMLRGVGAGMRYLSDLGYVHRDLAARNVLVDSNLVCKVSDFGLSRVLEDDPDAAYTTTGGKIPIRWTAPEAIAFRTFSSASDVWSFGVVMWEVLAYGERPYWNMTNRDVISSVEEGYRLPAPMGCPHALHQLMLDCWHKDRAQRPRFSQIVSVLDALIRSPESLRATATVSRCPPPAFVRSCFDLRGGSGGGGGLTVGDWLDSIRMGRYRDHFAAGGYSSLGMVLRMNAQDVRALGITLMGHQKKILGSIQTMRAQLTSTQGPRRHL
Summary of the method: as §1

CAMK2g = target: T7, CAMK2g (Homo sapiens, UniProt Q13555)
T7 construct: purchased Reaction Biology Corp
Summary of the method: as §1

MEK2 = target: T8, MEK2 (Homo sapiens, UniProt P36507)
T8 construct: purchased Reaction Biology Corp
Summary of the method: as §1

[1] = read-out: % Enzyme Activity (relative to DMSO controls) Run 1
[2] = read-out: % Enzyme Activity (relative to DMSO controls) Run 2

T4 sequence (Q96RG2 whole entry): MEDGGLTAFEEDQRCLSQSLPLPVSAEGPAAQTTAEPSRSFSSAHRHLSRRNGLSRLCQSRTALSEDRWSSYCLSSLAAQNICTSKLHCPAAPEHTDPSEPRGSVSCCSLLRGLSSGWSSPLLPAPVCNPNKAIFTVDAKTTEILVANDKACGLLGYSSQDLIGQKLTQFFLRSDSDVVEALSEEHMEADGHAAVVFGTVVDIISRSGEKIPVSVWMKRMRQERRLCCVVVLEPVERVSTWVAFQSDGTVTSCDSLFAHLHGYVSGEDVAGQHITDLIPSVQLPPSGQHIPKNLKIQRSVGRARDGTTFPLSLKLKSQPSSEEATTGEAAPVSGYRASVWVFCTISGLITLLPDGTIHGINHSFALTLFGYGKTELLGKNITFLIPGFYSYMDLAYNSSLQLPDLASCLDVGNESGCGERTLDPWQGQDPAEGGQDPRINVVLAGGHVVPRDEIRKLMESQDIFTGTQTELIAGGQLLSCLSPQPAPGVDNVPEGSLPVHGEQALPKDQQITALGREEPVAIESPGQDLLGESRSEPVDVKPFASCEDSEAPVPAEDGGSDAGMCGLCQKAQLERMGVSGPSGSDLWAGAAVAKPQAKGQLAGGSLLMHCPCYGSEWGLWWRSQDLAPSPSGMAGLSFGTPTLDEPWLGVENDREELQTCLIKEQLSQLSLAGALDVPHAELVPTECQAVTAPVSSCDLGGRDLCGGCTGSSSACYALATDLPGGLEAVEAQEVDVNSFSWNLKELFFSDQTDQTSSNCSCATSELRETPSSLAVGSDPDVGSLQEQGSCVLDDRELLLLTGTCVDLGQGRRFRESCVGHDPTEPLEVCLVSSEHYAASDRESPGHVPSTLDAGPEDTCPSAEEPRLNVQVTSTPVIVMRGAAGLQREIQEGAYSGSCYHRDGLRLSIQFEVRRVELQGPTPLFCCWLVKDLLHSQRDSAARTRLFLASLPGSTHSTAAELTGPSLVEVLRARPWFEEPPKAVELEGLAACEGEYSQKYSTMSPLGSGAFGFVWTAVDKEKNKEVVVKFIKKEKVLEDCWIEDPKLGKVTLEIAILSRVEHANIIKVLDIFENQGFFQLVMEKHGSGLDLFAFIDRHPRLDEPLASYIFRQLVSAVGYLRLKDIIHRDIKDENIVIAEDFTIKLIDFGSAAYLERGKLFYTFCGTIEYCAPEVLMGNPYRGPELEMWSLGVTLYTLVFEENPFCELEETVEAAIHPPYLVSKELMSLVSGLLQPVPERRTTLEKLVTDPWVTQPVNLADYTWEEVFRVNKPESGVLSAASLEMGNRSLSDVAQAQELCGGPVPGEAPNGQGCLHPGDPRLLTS
T3 sequence (Q96SB4 whole entry): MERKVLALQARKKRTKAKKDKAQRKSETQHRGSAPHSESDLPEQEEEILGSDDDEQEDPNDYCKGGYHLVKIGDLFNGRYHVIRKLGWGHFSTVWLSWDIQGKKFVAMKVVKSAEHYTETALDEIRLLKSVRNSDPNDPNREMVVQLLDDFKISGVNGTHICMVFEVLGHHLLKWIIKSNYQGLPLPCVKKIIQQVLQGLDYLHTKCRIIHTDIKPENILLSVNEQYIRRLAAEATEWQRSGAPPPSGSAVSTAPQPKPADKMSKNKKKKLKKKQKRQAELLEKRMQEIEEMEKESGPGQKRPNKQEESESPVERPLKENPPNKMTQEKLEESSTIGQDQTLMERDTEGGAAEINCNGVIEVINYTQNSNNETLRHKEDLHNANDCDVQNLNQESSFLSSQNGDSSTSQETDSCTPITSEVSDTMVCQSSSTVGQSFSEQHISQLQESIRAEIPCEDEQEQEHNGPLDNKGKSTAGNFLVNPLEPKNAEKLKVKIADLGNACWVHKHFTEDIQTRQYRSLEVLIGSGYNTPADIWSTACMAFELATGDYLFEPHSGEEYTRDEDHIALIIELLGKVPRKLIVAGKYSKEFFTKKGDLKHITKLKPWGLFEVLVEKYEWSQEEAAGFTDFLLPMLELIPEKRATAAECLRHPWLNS
T2 sequence (P11362 22-822): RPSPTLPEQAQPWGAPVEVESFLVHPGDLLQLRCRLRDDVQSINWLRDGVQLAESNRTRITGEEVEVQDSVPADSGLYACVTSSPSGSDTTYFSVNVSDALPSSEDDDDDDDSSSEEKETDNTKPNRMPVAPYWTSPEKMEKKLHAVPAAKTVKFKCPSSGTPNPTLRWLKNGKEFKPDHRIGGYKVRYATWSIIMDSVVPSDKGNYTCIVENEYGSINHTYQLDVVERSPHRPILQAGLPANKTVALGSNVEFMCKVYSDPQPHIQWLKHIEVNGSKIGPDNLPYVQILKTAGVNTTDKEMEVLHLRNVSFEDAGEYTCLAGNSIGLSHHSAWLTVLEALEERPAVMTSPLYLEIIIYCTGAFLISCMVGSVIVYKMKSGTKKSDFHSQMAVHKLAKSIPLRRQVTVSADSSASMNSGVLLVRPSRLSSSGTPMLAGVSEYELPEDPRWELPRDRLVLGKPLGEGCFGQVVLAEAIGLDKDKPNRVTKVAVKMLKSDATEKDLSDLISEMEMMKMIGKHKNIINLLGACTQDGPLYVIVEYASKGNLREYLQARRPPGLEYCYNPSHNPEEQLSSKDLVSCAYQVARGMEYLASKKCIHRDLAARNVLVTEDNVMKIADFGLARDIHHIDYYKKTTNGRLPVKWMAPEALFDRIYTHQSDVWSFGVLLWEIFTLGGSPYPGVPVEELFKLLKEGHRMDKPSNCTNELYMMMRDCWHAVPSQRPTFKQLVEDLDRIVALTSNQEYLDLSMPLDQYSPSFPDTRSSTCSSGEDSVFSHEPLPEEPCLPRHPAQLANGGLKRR
T7 sequence (Q13555 whole entry): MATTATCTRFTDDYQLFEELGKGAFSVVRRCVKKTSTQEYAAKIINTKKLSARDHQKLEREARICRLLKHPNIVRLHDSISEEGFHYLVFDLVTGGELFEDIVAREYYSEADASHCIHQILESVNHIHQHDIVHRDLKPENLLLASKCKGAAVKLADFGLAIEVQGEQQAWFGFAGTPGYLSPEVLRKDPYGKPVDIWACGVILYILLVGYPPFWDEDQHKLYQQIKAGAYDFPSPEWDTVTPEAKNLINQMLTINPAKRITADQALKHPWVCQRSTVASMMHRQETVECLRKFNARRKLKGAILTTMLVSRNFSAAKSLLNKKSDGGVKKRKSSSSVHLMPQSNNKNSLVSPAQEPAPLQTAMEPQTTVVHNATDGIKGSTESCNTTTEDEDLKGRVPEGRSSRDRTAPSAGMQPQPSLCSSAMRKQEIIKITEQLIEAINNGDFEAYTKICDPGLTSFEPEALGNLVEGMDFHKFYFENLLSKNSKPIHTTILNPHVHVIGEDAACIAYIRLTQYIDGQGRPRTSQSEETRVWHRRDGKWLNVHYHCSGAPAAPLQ
T8 sequence (P36507 whole entry): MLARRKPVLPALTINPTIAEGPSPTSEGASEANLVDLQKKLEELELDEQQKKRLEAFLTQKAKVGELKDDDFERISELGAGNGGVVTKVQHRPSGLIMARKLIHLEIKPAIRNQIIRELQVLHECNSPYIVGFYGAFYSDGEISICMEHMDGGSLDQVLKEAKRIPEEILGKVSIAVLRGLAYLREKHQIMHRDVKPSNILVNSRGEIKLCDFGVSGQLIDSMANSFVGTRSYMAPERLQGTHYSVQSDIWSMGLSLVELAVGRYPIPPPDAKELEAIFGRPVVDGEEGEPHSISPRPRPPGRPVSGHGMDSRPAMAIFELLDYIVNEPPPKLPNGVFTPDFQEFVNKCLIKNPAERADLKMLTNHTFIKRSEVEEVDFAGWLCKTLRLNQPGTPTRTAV
T1 sequence (P54756 25-1037): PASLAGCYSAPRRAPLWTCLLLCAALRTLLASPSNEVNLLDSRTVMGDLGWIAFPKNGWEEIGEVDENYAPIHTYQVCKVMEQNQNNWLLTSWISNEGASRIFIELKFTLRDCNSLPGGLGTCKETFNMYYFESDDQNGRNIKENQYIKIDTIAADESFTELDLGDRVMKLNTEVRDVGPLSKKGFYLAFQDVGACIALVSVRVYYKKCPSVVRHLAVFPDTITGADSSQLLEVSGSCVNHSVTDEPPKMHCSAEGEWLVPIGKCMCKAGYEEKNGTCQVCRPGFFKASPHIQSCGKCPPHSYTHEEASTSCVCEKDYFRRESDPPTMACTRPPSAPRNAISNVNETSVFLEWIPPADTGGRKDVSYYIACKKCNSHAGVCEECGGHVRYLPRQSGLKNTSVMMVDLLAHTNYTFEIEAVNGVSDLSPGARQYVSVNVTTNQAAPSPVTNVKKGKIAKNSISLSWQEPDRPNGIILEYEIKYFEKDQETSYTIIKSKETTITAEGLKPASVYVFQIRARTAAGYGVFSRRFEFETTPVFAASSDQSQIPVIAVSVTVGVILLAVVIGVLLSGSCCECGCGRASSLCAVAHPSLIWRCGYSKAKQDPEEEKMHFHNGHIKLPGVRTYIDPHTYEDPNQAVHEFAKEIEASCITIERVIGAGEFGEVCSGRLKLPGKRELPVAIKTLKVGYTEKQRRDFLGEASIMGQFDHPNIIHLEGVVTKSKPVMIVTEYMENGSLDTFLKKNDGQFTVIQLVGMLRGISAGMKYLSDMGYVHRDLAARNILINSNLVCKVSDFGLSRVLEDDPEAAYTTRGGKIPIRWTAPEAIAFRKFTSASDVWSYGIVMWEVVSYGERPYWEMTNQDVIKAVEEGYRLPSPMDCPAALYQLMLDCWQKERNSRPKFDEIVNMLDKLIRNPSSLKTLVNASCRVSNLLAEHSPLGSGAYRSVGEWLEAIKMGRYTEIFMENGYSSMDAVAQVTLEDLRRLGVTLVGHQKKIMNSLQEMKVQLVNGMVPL

C=CC(=O)Nc1cccc(Nc2nc(Nc3ccc(OCCOC)c(F)c3)ncc2F)c1 [Compound 2]
inhibition at 3 µM (EPHA5): 8.66% | remaining activity at 3 µM (EPHA5; [1]): 89.1% | remaining activity at 3 µM (EPHA5; [2]): 93.6% | inhibition at 3 µM (FGFR1): 59.7% | remaining activity at 3 µM (FGFR1; [1]): 41.4% | remaining activity at 3 µM (FGFR1; [2]): 39.3% | inhibition at 3 µM (SRPK1): 2.23% | remaining activity at 3 µM (SRPK1; [1]): 98.8% | remaining activity at 3 µM (SRPK1; [2]): 96.7% | inhibition at 3 µM (PASK): 6.14% | remaining activity at 3 µM (PASK; [1]): 94.7% | remaining activity at 3 µM (PASK; [2]): 93.1% | inhibition at 3 µM (PKCmu/PRKD1): 24.6% | remaining activity at 3 µM (PKCmu/PRKD1; [1]): 74.8% | remaining activity at 3 µM (PKCmu/PRKD1; [2]): 75.8% | inhibition at 3 µM (EPHA8): 5.98% | remaining activity at 3 µM (EPHA8; [1]): 94.2% | remaining activity at 3 µM (EPHA8; [2]): 93.8% | inhibition at 3 µM (CAMK2g): -7.18% | remaining activity at 3 µM (CAMK2g; [1]): 104% | remaining activity at 3 µM (CAMK2g; [2]): 111% | inhibition at 3 µM (MEK2): -5.66% | remaining activity at 3 µM (MEK2; [1]): 106% | remaining activity at 3 µM (MEK2; [2]): 105%
